This note sets out measurements from patent publication US20190151312A1, “HEPARAN SULFATE BIOSYNTHESIS INHIBITORS FOR THE TREATMENT OF DISEASES” (BioMarin Pharmaceutical Inc., priority 2014, published 2019).

The first experiment deals with GM01896 cells (MPS II dermal fibroblasts). Put plainly: Assay 1: MPS cellular assay, MPS II (heparan sulfate disaccharide biomarkers by LC-MS). Type of experiment: cell-based, human. The settings on record: Assay 1 for MPS II, heparan sulfate disaccharide biomarkers (I2a4, I2a6, I2S0 and/or I2S6), read-out: IC50 Range. On the procedure: Dermal fibroblasts from humans with an MPS disorder and from healthy donors are grown. Cells are expanded and kept in culture for analysis. Human foreskin fibroblasts can be obtained from the American Type Culture Collection (CRL-1634). Human dermal fibroblasts derived from biopsies of individuals are purchased from Coriell Institute: clinically healthy individuals, GM00408, GM00409, GM00200 (clinically unaffected sibling of an individual with metachromatic leukodystrophy), GM05659, GM08398, and GM15871 (clinically unaffected sibling of an individual with unclassified Ehlers-Danlos syndrome); heterozygous MPS I carriers, GM01392, GM01393 and GM0003; homozygous individuals affected with MPS I, GM06214, GM11495, GM00034, GM01391 and GM01256; individuals with MPS II, GM01896, GM03181, GM00615 and GM00298; individuals with MPS IIIA, GM00879, GM00643, GM00934, GM06110 and GM00629; MPS IIIB, GM01426; MPS IIIC, GM05157; MPS IIID, GM05093; and MPS VII, GM00121. All cells are grown in DMEM containing 50 U ml-1 penicillin, […] ml-1 streptomycin, 2 mM glutamine and 10% FBS. Cells are seeded on 15-cm-diameter tissue culture dishes, grown to confluence and maintained in culture for analysis. Sulfamidase activity in cell extracts is measured with 4-methylumbelliferyl-α-D-N-sulfoglucosaminide according the vendors instructions substituting Tris-acetate buffer (pH 6.5; Moscerdam).
Cells are treated with a compound of the invention at a concentration at or below 30 μM for 4 to 21 days. Cell monolayers are washed with phosphate buffered saline and detached by treatment with GIBCO trypsin-EDTA solution (Invitrogen). After centrifugation, the supernatant is removed and the cells are lysed in 0.5 mL of 0.1 N sodium hydroxide. The amount of protein is determined by bicinchoninic acid (BCA assay, Thermo Scientific). GAGs are isolated by anion exchange chromatography and digested with glycosaminoglycan lyases (heparinases I, II, and III, IBEX).
Enzymatically depolymerized GAG preparations are differentially mass labeled by reductive amination with [^12C6]aniline. Briefly, heparan sulfate disaccharides (1-10 pmol) are dried down in a centrifugal evaporator and reacted with [^12C6]aniline or [^13C6]aniline (15 μL, 165 μmol) and 15 μL of 1 M NaCNBH3 (Sigma-Aldrich) freshly prepared in dimethylsulfoxide/acetic acid (7:3, v/v) is added to each sample. Reactions are carried out at 37° C. for 16 h and then dried in a centrifugal evaporator. Unsubstituted amines are reacted with propionic anhydride (Sigma-Aldrich). Dried samples are reconstituted in 20 μL of 50% methanol, and 3 μL of propionic anhydride (Sigma-Aldrich, 23.3 μmol) is added. Reactions are carried out at ˜23° C. for 2 h. Acylated disaccharides are subsequently aniline tagged as described above. Each sample is mixed with commercially available standard unsaturated disaccharides (Seikagaku), standard N-sulfoglucosamine, glucosamine-6-sulfate, N-acetylgalactosamine-4-sulfate and N-acetylgalactosamine-6-sulfate (Sigma-Aldrich), and/or synthesized α-L-idopyranosyluronate-(1,4)-2-N-acetyl-2-deoxy-α/β-D-glucopyranoside (I0S0). All standards are tagged with [^13C6]aniline (Sigma-Aldrich). Samples are then analyzed by LC-MS using an LTQ Orbitrap Discovery electrospray ionization mass spectrometer (Thermo Scientific) equipped with quaternary HPLC pump (Finnigan Surveyor MS pump) and a reverse-phase capillary column as described in J. Biol. Chem. 2008, 283(48), 33674.
MPS II: Assay 1, as described above, was used to determine activity for MPS II using GM01896 cells. […] Extracted ion chromatograms were obtained. Cell viability was monitored using alamar blue or ATP quantification. IC50's were calculated using curve fitting within the ChemInnovation CBIS database system.
Turning to `CN(C)CCn1cnc2ccc(-c3cc(Nc4ccc(Cl)cc4)nc(N4CCOCC4)n3)cc21` [[2-(6-{6-[(4-chlorophenyl)amino]-2-morpholin-4-ylpyrimidin-4-yl}benzimidazolyl)ethyl]dimethylamine], the IC50 (as a rule, the concentration that inhibits the measured activity by half) was 0.5 to 1 µM.

The same experiment, now with this note: Homo sapiens, Fibroblast, Assay 1 for MPS II, heparan sulfate disaccharide biomarkers (I2a4, I2a6, I2S0 and/or I2S6), read-out: IC50 Range.
`CNC(=O)c1ccc(Nc2cc(-c3ccc4cn(CCN(C)C)nc4c3)nc(N3CCOCC3)n2)cc1` [{4-[(6-{2-[2-(dimethylamino)ethyl](2H-indazol-6-yl)}-2-morpholin-4-ylpyrimidin-4-yl)amino]phenyl}-N-methylcarboxamide]: the IC50 is below 0.5 µM. Regarding `Cn1ccnc1-c1ccc(Nc2cc(-c3ccc4c(CCN5CCOCC5)nn(C)c4c3)nc(N3CCOCC3)n2)cc1` [[4-(1-methylimidazol-2-yl)phenyl]{6-[1-methyl-3-(2-morpholin-4-ylethyl)(1H-indazol-6-yl)]-2-morpholin-4-ylpyrimidin-4-yl}amine], the IC50 lay in the range of 0.5 to 1 µM. For the compound `Cc1nn(C)c2cc(-c3cc(Nc4ccc5ncn(C)c5c4)nc(N4CCOCC4)n3)ccc12` [[6-(1,3-dimethyl(1H-indazol-6-yl))-2-morpholin-4-ylpyrimidin-4-yl](1-methylbenzimidazol-6-yl)amine], the IC50 was 1 to 5 µM. Same read-out and setting: next, `Cc1nnc(-c2ccc(Nc3cc(-c4ccc5c(C)nn(C)c5c4)nc(N4CCOCC4)n3)cc2)[nH]1` [[6-(1,3-dimethyl(1H-indazol-6-yl))-2-morpholin-4-ylpyrimidin-4-yl][4-(5-methyl(4H-1,2,4-triazol-3-yl))phenyl]amine]: below 0.5 µM; `Cn1nc(CCN2CCOCC2)c2ccc(-c3cc(Nc4ccc5cn[nH]c5c4)nc(N4CCOCC4)n3)cc21` [1H-indazol-6-yl{6-[1-methyl-3-(2-morpholin-4-ylethyl)(1H-indazol-6-yl)]-2-morpholin-4-ylpyrimidin-4-yl}amine]: 0.5 to 1 µM; `Cn1cnc2ccc(-c3cc(Nc4ccc(C(=O)NCC5CC5)cc4)nc(N4CCOCC4)n3)cc21` [N-(cyclopropylmethyl)(4-{[6-(1-methylbenzimidazol-6-yl)-2-morpholin-4-ylpyrimidin-4-yl]amino}phenyl)carboxamide]: 0.5 to 1 µM.

As to `Cc1nn(C)c2cc(-c3cc(Nc4ccc(-c5ccn(C)c5)cc4)nc(N4CCOCC4)n3)ccc12` [[6-(1,3-dimethyl(1H-indazol-6-yl))-2-morpholin-4-ylpyrimidin-4-yl][4-(1-methylpyrrol-3-yl)phenyl]amine], the IC50 fell in the range of 1 to 5 µM.

As to `Cn1ncc2ccc(-c3cc(Nc4ccc(-c5[nH]ncc5F)cc4)nc(N4CCOCC4)n3)cc21` [[4-(4-fluoropyrazol-5-yl)phenyl][6-(1-methyl(1H-indazol-6-yl))-2-morpholin-4-ylpyrimidin-4-yl]amine], the IC50 lay in the range of 1 to 5 µM. The same measure, in the same setting: to `CNS(=O)(=O)c1ccc(Nc2cc(-c3ccc4cnn(C)c4c3)nc(N3CCOCC3)n2)cc1` [methyl[(4-{[6-(1-methyl(1H-indazol-6-yl))-2-morpholin-4-ylpyrimidin-4-yl]amino}phenyl)sulfonyl]amine] belongs 1 to 5 µM. On to `Cn1ccc2ccc(Nc3cc(-c4ccc5c(CCN6C(=O)c7ccccc7C6=O)nn(C)c5c4)nc(N4CCOCC4)n3)cc21` [2-[2-(1-methyl-6-{6-[(1-methylindol-6-yl)amino]-2-morpholin-4-ylpyrimidin-4-yl}-1H-indazol-3-yl)ethyl]benzo[c]azoline-1,3-dione], for which the IC50 is 0.5 to 1 µM.

For `CN1CCN(CCc2nn(C)c3cc(-c4cc(Nc5ccc(Cl)cc5)nc(N5CCOCC5)n4)ccc23)CC1` [(4-chlorophenyl)(6-{1-methyl-3-[2-(4-methylpiperazinyl)ethyl](1H-indazol-6-yl)}-2-morpholin-4-ylpyrimidin-4-yl)amine], the IC50 was in the range of 0.5 to 1 µM. The same measure, in the same setting: to `COc1cc(Nc2cc(-c3ccc4ncn(C)c4c3)nc(N3CCOCC3)n2)ccn1` [(2-methoxy(4-pyridyl))[6-(1-methylbenzimidazol-6-yl)-2-morpholin-4-ylpyrimidin-4-yl]amine] belongs 0.5 to 1 µM. On to `CN(C)c1ccc(Nc2cc(-c3ccc4ncn(C)c4c3)nc(N3CCOCC3)n2)cc1` [dimethyl(4-{[6-(1-methylbenzimidazol-6-yl)-2-morpholin-4-ylpyrimidin-4-yl]amino}phenyl)amine], for which the IC50 lay within 1 to 5 µM.

As to `CNC(=O)c1ccc(Nc2cc(-c3ccc4c(c3)ncn4CCCN3CCCC3)nc(N3CCOCC3)n2)cc1` [N-methyl[4-({2-morpholin-4-yl-6-[1-(3-pyrrolidinylpropyl)benzimidazol-5-yl]pyrimidin-4-yl}amino)phenyl]carboxamide], the IC50 fell in the range of 0.5 to 1 µM. Still for that read-out and setting: next, `CNC(=O)c1ccc(Nc2cc(-c3ccc4c(cnn4C4CC4)c3)nc(N3CCOCC3)n2)cc1` [(4-{[6-(1-cyclopropyl(1H-indazol-5-yl))-2-morpholin-4-ylpyrimidin-4-yl]amino}phenyl)-N-methylcarboxamide]: 1 to 5 µM; `Cn1nc(CCN2CCOCC2)c2ccc(-c3cc(Nc4ccc(-c5nnc(C6CC6)[nH]5)cc4)nc(N4CCOCC4)n3)cc21` [[4-(5-cyclopropyl(4H-1,2,4-triazol-3-yl))phenyl]{6-[1-methyl-3-(2-morpholin-4-ylethyl)(1H-indazol-6-yl)]-2-morpholin-4-ylpyrimidin-4-yl}amine]: below 0.5 µM. The same measure, in the same setting: to `Cn1cc(-c2ccc(Nc3cc(-c4ccc5cnn(C)c5c4)nc(N4CCOCC4)n3)cc2)nn1` [[4-(1-methyl(1,2,3-triazol-4-yl))phenyl][6-(1-methyl(1H-indazol-6-yl))-2-morpholin-4-ylpyrimidin-4-yl]amine] belongs 1 to 5 µM; to `Cn1ncc2ccc(-c3cc(Nc4ccc(-c5nnc[nH]5)cc4)nc(N4CCOCC4)n3)cc21` [(4-(4H-1,2,4-triazol-3-yl)phenyl)[6-(1-methyl(1H-indazol-6-yl))-2-morpholin-4-ylpyrimidin-4-yl]amine], below 0.5 µM. The same measure, in the same setting: next, `CNC(=O)c1ccc(Nc2cc(-c3ccc4c(c3)ncn4CCN3CCOCC3)nc(N3CCOCC3)n2)cc1` [N-methyl[4-({2-morpholin-4-yl-6-[1-(2-morpholin-4-ylethyl)benzimidazol-5-yl]pyrimidin-4-yl}amino)phenyl]carboxamide]: 0.5 to 1 µM. On to `NC(=O)c1ccc(Nc2cc(-c3ccc4ncn(CCN5CCOCC5)c4c3)nc(N3CCOCC3)n2)cc1` [4-({2-morpholin-4-yl-6-[1-(2-morpholin-4-ylethyl)benzimidazol-6-yl]pyrimidin-4-yl}amino)benzamide], for which the IC50 fell in the range of 1 to 5 µM. On the same count and under the same terms, to `Clc1ccc(Nc2cc(-c3ccc4c(c3)ncn4CCN3CCCC3)nc(N3CCOCC3)n2)cc1` [(4-chlorophenyl){2-morpholin-4-yl-6-[1-(2-pyrrolidinylethyl)benzimidazol-5-yl]pyrimidin-4-yl}amine] belongs 1 to 5 µM; to `Cn1nc(CCCN)c2ccc(-c3cc(Nc4ccc(Cl)cc4)nc(N4CCOCC4)n3)cc21` [{6-[3-(3-aminopropyl)-1-methyl(1H-indazol-6-yl)]-2-morpholin-4-ylpyrimidin-4-yl}(4-chlorophenyl)amine], 1 to 5 µM; to `Cc1nn(C)c2cc(-c3cc(Nc4ccc(-c5ncc(C(F)(F)F)[nH]5)cc4)nc(N4CCOCC4)n3)ccc12` [[6-(1,3-dimethyl(1H-indazol-6-yl))-2-morpholin-4-ylpyrimidin-4-yl]{4-[5-(trifluoromethyl)imidazol-2-yl]phenyl}amine], 0.5 to 1 µM. Regarding `Cc1nc2ccc(-c3cc(Nc4ccc(Cl)cc4)nc(N4CCOCC4)n3)cc2n1C1CC1` [(4-chlorophenyl)[6-(1-cyclopropyl-2-methylbenzimidazol-6-yl)-2-morpholin-4-ylpyrimidin-4-yl]amine], the IC50 was 0.5 to 1 µM.
